# Experimental data reported in US11433138B2, “Nanocarriers and intracellular delivery of same” (Georgia Tech Research Corporation, priority 2016, dated 2022).
# Tests used:
# mouse IgG (IgGM) = assay: Binding kinetics to biotinylated IgG immobilized on optical biosensors (mouse IgG)
# Method: (§1) Biotinylated IgG was immobilized onto optical biosensors to enable high throughput kinetic analyses in microplate format. The IgG-binding behavior to the Hex nanocarrier in comparison to soluble SPAB at neutral and acidic pH was assessed.
# rabbit IgG (IgGR) = assay: Binding kinetics to biotinylated IgG immobilized on optical biosensors (rabbit IgG)
# Method: as §1
substance,measurement,setting,value
domain B of staphylococcal protein A [SPAB],stronger binding at neutral pH compared to pH 5.0,mouse IgG (IgGM),17 fold
same,affinities towards mouse IgG (in words),mouse IgG (IgGM); neutral pH and pH 5.0,nanomolar
same,Kd,mouse IgG (IgGM); pH 5.0,470 ± 19 nM
same,Kd,mouse IgG (IgGM); pH 7.4,28.3 ± 2.8 nM
same,Kd,rabbit IgG (IgGR); pH 5.0,255 ± 17 nM
same,Kd,rabbit IgG (IgGR); pH 7.4,53 ± 2 nM
